This passage reports GI50 and TGI results from PubChem BioAssay (NCI).

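Tested at 5 concentrations; 48 h exposure; 96-well plates; endpoints linearly interpolated, else capped at highest concentration. GI50 = concentration required for 50% inhibition of growth. TGI marks complete inhibition of growth.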

Holding throughout (test): NCI tumour cell line growth inhibition, 48 h
In test [1] the test system is HCC-2998 colon.
In test [2] the test system is U251 CNS.
In test [3] the test system is NCI-H226 lung.
In test [4] the test system is HL-60(TB) leukemia.
For test [5], the system named is NCI-H522 lung.
The subject of test [6] is ACHN renal.
Test [7] relates to SF-539 CNS.
The test system of test [8] is MOLT-4 leukemia.
Test [9] concerns HOP-92 NSCLC.

On to `COc1ccc(-c2cc3nccn3c(Nc3ncccc3C(N)=O)n2)cc1OC`, for which the GI50 in test [1] is more than 100 µM; in test [2], more than 100 µM; in test [3], more than 100 µM; in [4] it was 2.13 µM; in [5], 1.18 µM; in test [6], 0.445 µM. For the same molecule, the GI50 in test [7] is 5.86 µM; in test [8], 4.14 µM. Further, the TGI in test [1] was more than 100 µM; in test [2], more than 100 µM; in test [3] it was more than 100 µM; in test [4] it was 24.2 µM; in [5] it was more than 100 µM; in [6] it was more than 100 µM. Further, the TGI in [7] and in test [8] was more than 100 µM throughout.
For `NCCCn1c2c(c3ccc([N+](=O)[O-])cc3c1=O)C(=O)c1cc(Cl)ccc1-2`, the GI50 in [1] was less than 0.0138 µM; in [2], less than 0.01 µM; in test [3], less than 0.01 µM; in [4], less than 0.01 µM; in [9] it was 0.0542 µM; in [6], less than 0.01 µM. The GI50 in [7] and in test [8] was less than 0.01 µM in each case. The TGI in test [1] was 0.119 µM; in test [2], 0.123 µM; in test [3] it was 0.141 µM; in test [4], less than 0.016 µM; in test [9], 0.544 µM; in test [6], 0.124 µM. The TGI is 0.0613 µM in [7] and less than 0.0114 µM in [8].
With `NC(N)=N/N=C(/c1ccccc1)c1ccc(O)cc1O`, the TGI in [1] was 32 µM; in test [2], 57.3 µM; in test [3] it was more than 100 µM; in test [9] it was more than 100 µM; in test [5], 34.5 µM; in [6], more than 100 µM. The molecule further came in with a TGI in test [7] of 39 µM.
In the case of `CC1(C)CC(O)CCCCCCOc2c(CN)cccc2NC(=O)c2nc(cnc2N)-c2ccc(cc2)S1(=O)=O` (centres undefined), the GI50 was 2.01 µM in test [1]; 0.382 µM in test [2]; 1.28 µM in test [3]; 2.72 µM in [9]; 1.22 µM in test [5]; 0.0214 µM in test [6]. Besides, the GI50 is 0.0363 µM in test [7] and less than 0.0122 µM in test [8]. Further, the TGI in [1] stood at 4.24 µM; in test [2], 1.86 µM; in test [3], 6.93 µM; in test [9] it was 5.82 µM; in test [5], 2.96 µM; in test [6], 2.04 µM. Moreover, the TGI came out at 1.73 µM in test [7] and 2.01 µM in test [8].
With `ClC1=C(Cl)C(Cl)=C(Cl)C1=Cc1ccc(Cl)cc1Cl`, the GI50 in [1] is 0.341 µM; in test [2], 0.39 µM; in test [4], 0.403 µM; in test [9] it was 0.633 µM; in [7], 0.353 µM; in test [8], 0.3 µM. Besides, the TGI in test [1] came out at 1.14 µM; in test [2], 1.49 µM; in [4], 3.1 µM; in [9], 2.56 µM; in [7], 1.4 µM; in test [8], 0.98 µM.
On to `CCC(C)c1cnc(CC(C)C)c(=O)[nH]1` (centres undefined), for which the TGI in test [1], in [2], in test [9], in [6] and in test [8] was more than 100 µM in each case.
With `CC(C)[C@H](O)C(=O)N[C@H]1Cc2ccc3c(c2)[C@]24C5=C(N=C(O5)[C@H](C(C)C)NC1=O)c1nc(Cl)c(o1)-c1c(Cl)[nH]c5cccc(c15)-c1cccc2c1N[C@H]4O3`, the GI50 in test [1] and in [2] was less than 0.001 µM throughout. Also, the TGI in [3] was 0.0273 µM; in test [5], 0.00562 µM; in [6] it was 5.3 µM; in [7], 0.083 µM; in test [8] it was more than 10 µM.
`O=C(Nc1cc([N+](=O)[O-])cc([N+](=O)[O-])c1)OC1C2CCC1C1OC1C2` (centres undefined): the TGI in test [1], in test [2], in test [4], in [9], in test [5] and in test [6] was more than 50 µM throughout. Besides, the TGI in test [7] and in test [8] was more than 50 µM each time.
Consider `Cc1cccc(NC(=O)Cc2nc3ccccc3s2)c1C`, for which the TGI in test [1], in test [3], in [4], in test [5], in test [6] and in test [7] was more than 100 µM throughout. In [8], the TGI is more than 100 µM.
Regarding `CN(C)CCC(=O)NCc1c2nc3ccccc3nc2n2ccccc12`, the GI50 in [1] is 33.8 µM; in test [2] it was more than 100 µM; in test [4] it was 58.1 µM; in [9], 34.6 µM; in [5] it was 66.1 µM; in test [6] it was more than 100 µM. Also, the GI50 in [7] was 21.9 µM; in test [8] it was 38.8 µM. The TGI in [1], in test [2], in [4], in [9], in test [5] and in test [6] was more than 100 µM in each case. The TGI in test [7] was 43.2 µM; in test [8] it was more than 100 µM.
As for `Nc1n[n+]([O-])c2cnccc2[n+]1[O-]`, the TGI was more than 100 µM in test [1]; more than 100 µM in [2]; more than 100 µM in [3]; 47.7 µM in test [4]; more than 100 µM in test [5]; more than 100 µM in test [6]. Further, the TGI in test [7] and in test [8] was more than 100 µM throughout.
`C=CC1=C(C)C(Cc2[nH]c(/C=c3\[nH]/c(=C/C4=NC(=O)C(C)/C4=C\C)c(C)c3CCC(=O)O)c(CCC(=O)OC)c2C)NC1=O` (centres undefined): the GI50 in test [1] is 26.7 µM; in test [2], 22.5 µM; in test [4] it was 39.8 µM; in [9], 19.6 µM; in test [5] it was 17.7 µM; in test [6], 26.3 µM. In addition, the GI50 in [7] was 25.1 µM; in test [8], 34.1 µM. The TGI in test [1] was 67.1 µM; in test [2], 52.9 µM; in [4], more than 100 µM; in [9], 51.6 µM; in [5], 32 µM; in test [6], 77.2 µM. Besides, the TGI in [7] is 54.4 µM; in [8], more than 100 µM.
